Data taken from PubChem BioAssay AID1259411 (Chemical Carcinogenesis Research Information System (CCRIS), 2018).
The source made the active and inactive calls. The rule behind the calls is not given here.

Test system: rodent carcinogenicity bioassays, tumor incidence
Assay: CCRIS carcinogenicity studies
Summary of the method: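 Archive of carcinogenicity, mutagenicity, tumor promotion and tumor inhibition results drawn from journals, NCI reports and other sources, expert-reviewed; covers 1985-2011 and is no longer updated.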

## CCOC(N)=O
Species: MOUSE, Strain/Sex: ICR/FEMALE, Route: INHALATION, Dose: 0, 0.25 UG/ML AIR FOR 5 D (TOTAL DOSE 1.25 UG/ML/D) (STUDY DURATION: 5 MO), Tumor Site: Type of Lesion: LUNG: TUMOR, HEMATOPOIETIC SYSTEM: LEUKEMIA
  carcinogen call: active; positive
Species: MOUSE, Strain/Sex: ICR/FEMALE, Route: INHALATION, Dose: 0, 0.25 UG/ML AIR FOR 10 D (TOTAL DOSE 2.5 UG/ML/D) (STUDY DURATION: 5 MO), Tumor Site: Type of Lesion: LUNG: TUMOR
  carcinogen call: active; positive
Species: MOUSE, Strain/Sex: ICR/FEMALE, Route: INHALATION, Dose: 0, 1.29 UG/ML AIR FOR 0.25 D (TOTAL DOSE 0.32 UG/ML/D) (STUDY DURATION: 5 MO), Tumor Site: Type of Lesion: LUNG: TUMOR, HEMATOPOIETIC SYSTEM: LEUKEMIA
  carcinogen call: active; positive
Species: MOUSE, Strain/Sex: ICR/FEMALE, Route: INHALATION, Dose: 0, 1.29 UG/ML AIR FOR 1 D (TOTAL DOSE 1.29 UG/ML/D) (STUDY DURATION; 5 MO), Dose: 0, 1.29 UG/ML AIR FOR 1 D (TOTAL DOSE 1.29 UG/ML/D) (STUDY DURATION; 5 MO), Tumor Site: Type of Lesion: LUNG: TUMOR, HEMATOPOIETIC SYSTEM: LEUKEMIA
  carcinogen call: active; positive
Species: MOUSE, Strain/Sex: ICR/FEMALE, Route: INHALATION, Dose: 0, 1.29 UG/ML AIR FOR 2 D (TOTAL DOSE 2.58 UG/ML/D) (STUDY DURATION: 5 MO), Tumor Site: Type of Lesion: LUNG: TUMOR, HEMATOPOIETIC SYSTEM: LEUKEMIA
  carcinogen call: active; positive
Species: MOUSE, Strain/Sex: ICR/FEMALE, Route: INHALATION, Dose: 0, 1.29 UG/ML AIR FOR 4 D (TOTAL DOSE 5.16 UG/ML/D) (STUDY DURATION: 5 MO), Tumor Site: Type of Lesion: LUNG: TUMOR, HEMATOPOIETIC SYSTEM: LEUKEMIA
  carcinogen call: active; positive
Species: MOUSE, Strain/Sex: ICR/FEMALE, Route: INHALATION, Dose: 0, 1.29 UG/ML AIR FOR 5 D (TOTAL DOSE 6.45 UG/ML/D) (STUDY DURATION: 5 MO), Tumor Site: Type of Lesion: LUNG: TUMOR, HEMATOPOIETIC SYSTEM: LEUKEMIA
  carcinogen call: active; positive
Species: MOUSE, Strain/Sex: ICR/MALE, Route: INHALATION, Dose: 0, 0.25 UG/ML AIR FOR 10 D (TOTAL DOSE 2.5 UG/ML/D) (STUDY DURATION: 12 MO), Tumor Site: Type of Lesion: LUNG: ADENOCARCINOMA, HEMATOPOIETIC SYSTEM: LEUKEMIA, LIVER: HEPATOMA, Tumor Site: Type of Lesion: LUNG: ADENOCARCINOMA, HEMATOPOIETIC SYSTEM: LEUKEMIA, LIVER: HEPATOMA
  carcinogen call: active; positive
Species: MOUSE, Strain/Sex: ICR/MALE, Route: INHALATION, Dose: 0, 1.29 UG/ML AIR FOR 4 D (TOTAL DOSE 5.16 UG/ML/D) (STUDY DURATION: 12 MO), Tumor Site: Type of Lesion: LUNG: ADENOCARCINOMA, HEMATOPOIETIC SYSTEM: LEUKEMIA, LIVER: HEPATOMA, Tumor Site: Type of Lesion: LUNG: ADENOCARCINOMA, HEMATOPOIETIC SYSTEM: LEUKEMIA, LIVER: HEPATOMA
  carcinogen call: active; positive
Species: MOUSE, Strain/Sex: STRAIN-A/MALE, Route: INTRAPERITONEAL, Dose: 0, 1.12, 4.6 MMOL/KG IN ISOTONIC SALINE ONCE AT 6 WK OF AGE (STUDY DURATION: 16 WK), Dose: 0, 1.12, 4.6 MMOL/KG IN ISOTONIC SALINE ONCE AT 6 WK OF AGE (STUDY DURATION: 16 WK), Tumor Site: Type of Lesion: LUNG: ADENOMA
  carcinogen call: active; positive
Species: MOUSE, Strain/Sex: SWISS WEBSTER/FEMALE, Route: INTRAVENOUS, Dose: 0, 3.3 MMOL ONCE ADMINISTERED TO VIRGIN FEMALES AT 12 WK OF AGE (STUDY DURATION: 6 MO), Tumor Site: Type of Lesion: LUNG: ADENOMA
  carcinogen call: active; positive
Species: MOUSE, Strain/Sex: SWISS WEBSTER/FEMALE, Route: INTRAVENOUS, Dose: 0, 3.3 MMOL/KG ONCE ADMINISTERED TO MOTHERS ON GESTATIONAL DAY 14 (STUDY DURATION: 6 MO), Tumor Site: Type of Lesion: LUNG: ADENOMA
  carcinogen call: active; positive
Species: MOUSE, Strain/Sex: SWISS WEBSTER/FEMALE, Route: TRANSPLACENTAL, Dose: 0, 3.3 MMOL/KG ONCE BY INTRAVENOUS ADMINISTRATION TO MOTHERS ON GESTATIONAL DAY 14 (STUDY DURATION: 6 MO), Tumor Site: Type of Lesion: LUNG: ADENOMA
  carcinogen call: active; positive
Species: MOUSE, Strain/Sex: SWISS WEBSTER/MALE, Route: TRANSPLACENTAL, Dose: 0, 3.3 MMOL/KG ONCE BY INTRAVENOUS ADMINISTRATION TO MOTHERS ON GESTATIONAL DAY 14 (STUDY DURATION: 6 Mo), Tumor Site: Type of Lesion: LUNG: ADENOMA
  carcinogen call: active; positive
Species: MOUSE, Strain/Sex: SWISS/MALE,FEMALE, Route: ORAL, Dose: 0, 0.4% IN DRINKING WATER, 2 10-D TREATMENTS, Dose: 0, 0.4% IN DRINKING WATER, 2 10-D TREATMENTS, Tumor Site: Type of Lesion: LUNG: ADENOMA, LYMPHOMA, LIVER: HEMANGIOMA, INTEGUMENTARY SYSTEM (SKIN): PAPILLOMA, SEBACEOUS CARCINOMA, Tumor Site: Type of Lesion: LUNG: ADENOMA, LYMPHOMA, LIVER: HEMANGIOMA, INTEGUMENTARY SYSTEM (SKIN): PAPILLOMA, SEBACEOUS CARCINOMA
  carcinogen call: active; positive
Species: Mouse, Strain/Sex: 129 x MF1 Gstp-null (12-16 males and females), Route: Intraperitoneal, Dose: 10 mg/kg, once, study duration 5 mo, Tumor Site: Type of Lesion: Lung: adenoma (incidence 92% vs 27% in controls, multiplicity 3.8 vs 0.3 in controls)
  carcinogen call: inactive; negative
Species: Mouse, Strain/Sex: 129 x MF1 wild type (14-16 males and females), Route: Intraperitoneal, Dose: 10 mg/kg, once, study duration 5 mo, Tumor Site: Type of Lesion: Lung: adenoma (incidence 29% vs 25% in controls, multiplicity 0.4 vs 0.3 in controls)
  carcinogen call: inactive; negative
Species: RAT, Route: INTRAPERITONEAL, ORAL, Tumor Site: Type of Lesion: LIVER
  carcinogen call: active; positive
Species: RAT, Route: INTRAPERITONEAL, Tumor Site: Type of Lesion: LIVER, NERVOUS SYSTEM
  carcinogen call: active; positive
Species: RAT, Route: SUBCUTANEOUS, Tumor Site: Type of Lesion: EYE (IRIS)
  carcinogen call: active; positive
